Read-outs that look alike come from different tables or passages of the source.

In general, EC50 refers to the concentration at which the effect is half-maximal. Read a high EC50 as a less potent agent.

The subject of assay [1] is MDA-MB-453. The experiment in a line: Inhibition of cell proliferation by payloads in vitro (CCK-8). The class given is cell-based. The conditions noted are these: Homo sapiens, MDA-MB-453, 144 h, read-out: IC50, nM MDA-MB-453. On the procedure: (§1) The cells were added to a 96-well plate at 1.0×10^3 cells/well and 100 μL/well and incubated in a cell culture incubator at 37° C. and 5% CO2. The test compounds were diluted with a DMEM medium containing 2% DMSO (Sigma-Aldrich, Cat. No. 34869) in a 4-fold gradient to the corresponding concentrations. […] The final concentration of DMSO was 0.2%. The cells were incubated in a cell culture incubator at 37° C. and 5% CO2 for 6 days.
(§2) After 6 days of culture, 10 μL/well of Cell Counting Kit-8 reagent (CCK-8, Dojindo, Cat. No. CK04) was added to the wells and mixed well with shaking. The cells were incubated in a cell culture incubator at 37° C. and 5% CO2 for 0.50-4.0 hours.
(§3) The OD450 optical density value was read on an EnVision™ multi-function microplate reader (PerkinElmer), and the inhibition rates (%) of the compounds were calculated. Then, the half-maximal inhibitory concentration (IC50) values were obtained using the XLfit5 software (ID Business Solutions Limited). All samples were tested in duplicate wells.
(§4) [formula] • wherein • OD450test compound represents the optical density value in the wells of the compounds to be tested; • OD450cell represents the optical density value in the wells of cell controls; • OD450background represents the optical density value in the wells of cell-free controls.

Assay [2] deals with MDA-MB-468. The assay is described as above. It counts as cell-based. The note with it: Homo sapiens, MDA-MB-468, 144 h, read-out: IC50, nM MDA-MB-468. On the procedure:
as §1, §2, §3, §4

The target in assay [3] is T1, Human PIK3CA/PIK3R1 (p110α/p85α) recombinant protein (Homo sapiens, UniProt P42336).
T1 construct: His tag; purchased Invitrogen PV4788
As to the kind of experiment: PIK3CA/PIK3R1 (p110α/p85α) kinase activity, Transcreener ADP2 FP. The class given is biochemical. The note with it: 10 μM ATP, 30 μM PIP2:PS; read-out: PIK3CA/PIK3R1 (p110α/p85α) (Enzyme, IC50). On the procedure:
The complex formed by the binding of the ADP Alexa633 Tracer to the ADP2 antibody therein could produce fluorescence polarization. […] Assay is carried out according to the instruction of the kit. […] After that, 10 μl PIK3CA/PIK3R1 (p110α/p85α) enzyme solution was added to each well; then, 10 μl of a mixed solution of ATP and PIP2:PS lipid kinase substrate was added to each well, and the mixture was centrifuged at 1000 rpm for 60 seconds; Then, the 96-well plate was placed in a constant temperature incubator protected from light and incubated at room temperature for 1 hour. […] After the enzymatic reaction was completed, 25 μl of ADP detection mixture was added to the positive control group, 25 μl of ADP detection mixture without ADP^2 antibody was added to the negative control group, and 25 μl of ADP detection mixture without tracer-label ADP and ADP^2 antibody was added to the blank control group. Then centrifugation was performed at 1000 rpm for 60 seconds. The 96-well plate was placed in a constant temperature incubator protected from light, and incubated at room temperature for 1.5 hours. […] [formula] The inhibition rate was calculated using the formula as below: [formula]

For assay [4], the target named is T2, Human FRAP1 (mTOR) recombinant protein (Homo sapiens, UniProt P42345).
T2 construct: GST; purchased Invitrogen PV4753
T2 sequence (P42345 1360-2549 limits assumed): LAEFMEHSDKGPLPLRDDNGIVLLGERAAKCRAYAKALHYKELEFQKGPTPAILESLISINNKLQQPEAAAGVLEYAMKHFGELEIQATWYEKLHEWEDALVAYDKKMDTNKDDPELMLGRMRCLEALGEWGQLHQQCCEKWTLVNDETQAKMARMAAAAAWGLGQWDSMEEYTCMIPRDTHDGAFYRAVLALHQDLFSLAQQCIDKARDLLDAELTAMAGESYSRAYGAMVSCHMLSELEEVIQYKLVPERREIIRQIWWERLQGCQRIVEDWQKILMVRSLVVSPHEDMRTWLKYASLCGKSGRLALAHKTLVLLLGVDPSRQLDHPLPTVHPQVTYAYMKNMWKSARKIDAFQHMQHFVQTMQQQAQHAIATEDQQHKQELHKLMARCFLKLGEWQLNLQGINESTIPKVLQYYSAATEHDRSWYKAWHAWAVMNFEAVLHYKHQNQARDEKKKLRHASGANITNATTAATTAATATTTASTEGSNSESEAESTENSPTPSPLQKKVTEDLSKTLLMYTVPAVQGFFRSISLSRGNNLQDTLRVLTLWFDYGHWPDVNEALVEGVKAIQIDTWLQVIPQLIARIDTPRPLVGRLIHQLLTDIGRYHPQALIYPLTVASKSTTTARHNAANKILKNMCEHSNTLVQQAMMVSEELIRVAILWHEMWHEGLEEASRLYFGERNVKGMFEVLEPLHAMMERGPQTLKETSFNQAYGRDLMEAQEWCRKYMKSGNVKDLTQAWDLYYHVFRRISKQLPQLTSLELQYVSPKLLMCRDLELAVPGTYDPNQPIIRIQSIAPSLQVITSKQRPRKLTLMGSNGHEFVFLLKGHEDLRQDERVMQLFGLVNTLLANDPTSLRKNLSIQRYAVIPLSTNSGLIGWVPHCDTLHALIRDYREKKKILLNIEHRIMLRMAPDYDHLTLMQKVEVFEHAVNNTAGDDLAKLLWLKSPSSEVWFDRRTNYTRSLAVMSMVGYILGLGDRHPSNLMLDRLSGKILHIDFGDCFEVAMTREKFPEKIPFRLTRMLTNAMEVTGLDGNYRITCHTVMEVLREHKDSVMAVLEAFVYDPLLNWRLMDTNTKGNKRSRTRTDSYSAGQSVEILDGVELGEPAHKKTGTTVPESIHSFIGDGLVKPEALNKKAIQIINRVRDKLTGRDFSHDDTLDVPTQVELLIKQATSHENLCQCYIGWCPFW
As to the kind of experiment: FRAP1 (mTOR) kinase activity, LanthaScreen TR-FRET. It counts as biochemical. The note with it: 10 μM ATP, 0.4 μM GFP-4EBP1; read-out: FRAP1 (mTOR) (Enzyme, IC50). On the procedure: Determination of FRAP1 (mTOR) Kinase Activity • Human FRAP1 (mTOR) recombinant protein (GST tag): Invitrogen, Cat. No. PV4753; • GFP-4E-BP1: Thermo Scientific, Cat. No. PV4759; • LanthaScreenTM Tb-p4E-BP1 ([…]) antibody: Thermo Scientific, Cat. No. PV4755; • TR-FRET dilution buffer: Thermo Scientific, Cat. No. PV3574; • ATP solution (10 mM): Thermo Scientific, Cat. No. PV3227; • HEPES (1 M): Gibco, Cat. No. 15630-106; • EDTA (0.5 M), pH 8.0, RNase-free: Invitrogen, Cat. No. A[…]; • Manganese chloride solution: Sigma-Aldrich, Cat. No. M1787; • EGTA: Sigma-Aldrich, Cat. No. E4378; • TWEEN®20: Sigma-Aldrich, Cat. No. P2287; • DTT: Sigma-Aldrich, Cat. No. DTT-RO; • 384-well plate: Corning, Cat. No. 3676; • 384-well plate: Corning, Cat. No. 4514; • Envision multi-mode plate reader: PerkinElmer; 4EBP1 is the substrate of mTOR, and when mTOR is activated, it will phosphorylate […] of the 4EBP1 protein. LanthaScreenTM kinase assay is used to detect the amount of phosphorylated substrate GFP-4E-BP1 produced in kinase activity experiments, thereby judging the mTOR kinase activity, and through the strength of the kinase activity, distinguishing the inhibitory effects of different compounds on the activity of FRAP1 (mTOR) kinase. […] Then, the 384-well plate was placed in a constant temperature incubator protected from light and incubated at room temperature for 1 hour. […] The 384-well plate was taken out and the plate was read using an Envision multi-mode plate reader (the excitation light wavelength was 320 nm and the emission light wavelengths were 495 nm and 520 nm). The inhibition rate was calculated using the formula as below: [formula]
(Time-resolved FRET reads energy transfer from a long-lived donor to a nearby acceptor.)

The target of assay [5] is ATM(h) (Homo sapiens, UniProt Q13315). The experiment in a line: ATM(h) kinase activity, HTRF (Eurofins Cerep). The class given is biochemical. The note with it: read-out: ATM(h) (enzyme, IC50). As to the method:
(§5) The […], ATM(h), ATR/ATRIP(h), and DNA-PK (h) were detected by HTRFR.
(§6) The calculation formula was as follows: […]
(§7) For IC50 determination, the data were analyzed using XLFit version 5.3 (ID Business Solutions).

Assay [6] has as its target T3, ATR/ATRIP(h) (Homo sapiens, UniProt Q13535).
T3 construct: purchased Eurofins Cerep 14-953
As to the kind of experiment: ATR/ATRIP(h) kinase activity, HTRF (Eurofins Cerep). The class given is biochemical. The note with it: read-out: ATR/ATRIP(h) (enzyme, IC50). On the procedure:
as §5, §6, §7

Assay [7] addresses T4, DNA-PK(h) (Homo sapiens, UniProt P78527).
T4 construct: purchased Eurofins Cerep 14-950
As to the kind of experiment: DNA-PK(h) kinase activity, HTRF (Eurofins Cerep). The class given is biochemical. The conditions noted are these: read-out: DNA-PK(h) (enzyme, IC50). As to the method: as §5, §6, §7

For assay [8], the target named is T5, CD38 (Ramos cells) (Homo sapiens, UniProt P28907).
T5 construct: Ramos cells (ATCC, Cat. No. CRL-1596); host or cells: Ramos
As to the kind of experiment: Binding of antibody or ADC to Ramos cells (CD38+) by flow cytometry. The note with it: cell binding, MFI by flow cytometry. A general note: A flow cytometer gives signals particle by particle.

For assay [9], the target named is T6, CD20 (UniProt P11836 1-297, limits assumed).
T6 sequence (looked up): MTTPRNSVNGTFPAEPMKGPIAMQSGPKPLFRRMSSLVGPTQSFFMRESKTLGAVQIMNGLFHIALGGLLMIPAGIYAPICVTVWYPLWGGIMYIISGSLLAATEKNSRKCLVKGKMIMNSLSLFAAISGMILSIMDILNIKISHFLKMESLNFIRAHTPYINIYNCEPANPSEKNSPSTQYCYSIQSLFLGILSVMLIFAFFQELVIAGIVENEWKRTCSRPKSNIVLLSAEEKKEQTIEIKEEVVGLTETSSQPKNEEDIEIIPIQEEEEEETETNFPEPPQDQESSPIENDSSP
The experiment in a line: cell-based or functional assay.

Assay [10] concerns the target T6, CD20. As to the kind of experiment: flow cytometry on Ramos cells (CD20+).
In assay [11] the target is CEACAM5/6. The experiment in a line: cell-based or functional assay.
In assay [12] the target is CEACAM5/6. The experiment in a line: flow cytometry on H2122 cells (CEACAM5/6+).
[13] abbreviates: payloads, proliferation, 6 days, CCK-8.

T3 sequence (Q13535 whole entry): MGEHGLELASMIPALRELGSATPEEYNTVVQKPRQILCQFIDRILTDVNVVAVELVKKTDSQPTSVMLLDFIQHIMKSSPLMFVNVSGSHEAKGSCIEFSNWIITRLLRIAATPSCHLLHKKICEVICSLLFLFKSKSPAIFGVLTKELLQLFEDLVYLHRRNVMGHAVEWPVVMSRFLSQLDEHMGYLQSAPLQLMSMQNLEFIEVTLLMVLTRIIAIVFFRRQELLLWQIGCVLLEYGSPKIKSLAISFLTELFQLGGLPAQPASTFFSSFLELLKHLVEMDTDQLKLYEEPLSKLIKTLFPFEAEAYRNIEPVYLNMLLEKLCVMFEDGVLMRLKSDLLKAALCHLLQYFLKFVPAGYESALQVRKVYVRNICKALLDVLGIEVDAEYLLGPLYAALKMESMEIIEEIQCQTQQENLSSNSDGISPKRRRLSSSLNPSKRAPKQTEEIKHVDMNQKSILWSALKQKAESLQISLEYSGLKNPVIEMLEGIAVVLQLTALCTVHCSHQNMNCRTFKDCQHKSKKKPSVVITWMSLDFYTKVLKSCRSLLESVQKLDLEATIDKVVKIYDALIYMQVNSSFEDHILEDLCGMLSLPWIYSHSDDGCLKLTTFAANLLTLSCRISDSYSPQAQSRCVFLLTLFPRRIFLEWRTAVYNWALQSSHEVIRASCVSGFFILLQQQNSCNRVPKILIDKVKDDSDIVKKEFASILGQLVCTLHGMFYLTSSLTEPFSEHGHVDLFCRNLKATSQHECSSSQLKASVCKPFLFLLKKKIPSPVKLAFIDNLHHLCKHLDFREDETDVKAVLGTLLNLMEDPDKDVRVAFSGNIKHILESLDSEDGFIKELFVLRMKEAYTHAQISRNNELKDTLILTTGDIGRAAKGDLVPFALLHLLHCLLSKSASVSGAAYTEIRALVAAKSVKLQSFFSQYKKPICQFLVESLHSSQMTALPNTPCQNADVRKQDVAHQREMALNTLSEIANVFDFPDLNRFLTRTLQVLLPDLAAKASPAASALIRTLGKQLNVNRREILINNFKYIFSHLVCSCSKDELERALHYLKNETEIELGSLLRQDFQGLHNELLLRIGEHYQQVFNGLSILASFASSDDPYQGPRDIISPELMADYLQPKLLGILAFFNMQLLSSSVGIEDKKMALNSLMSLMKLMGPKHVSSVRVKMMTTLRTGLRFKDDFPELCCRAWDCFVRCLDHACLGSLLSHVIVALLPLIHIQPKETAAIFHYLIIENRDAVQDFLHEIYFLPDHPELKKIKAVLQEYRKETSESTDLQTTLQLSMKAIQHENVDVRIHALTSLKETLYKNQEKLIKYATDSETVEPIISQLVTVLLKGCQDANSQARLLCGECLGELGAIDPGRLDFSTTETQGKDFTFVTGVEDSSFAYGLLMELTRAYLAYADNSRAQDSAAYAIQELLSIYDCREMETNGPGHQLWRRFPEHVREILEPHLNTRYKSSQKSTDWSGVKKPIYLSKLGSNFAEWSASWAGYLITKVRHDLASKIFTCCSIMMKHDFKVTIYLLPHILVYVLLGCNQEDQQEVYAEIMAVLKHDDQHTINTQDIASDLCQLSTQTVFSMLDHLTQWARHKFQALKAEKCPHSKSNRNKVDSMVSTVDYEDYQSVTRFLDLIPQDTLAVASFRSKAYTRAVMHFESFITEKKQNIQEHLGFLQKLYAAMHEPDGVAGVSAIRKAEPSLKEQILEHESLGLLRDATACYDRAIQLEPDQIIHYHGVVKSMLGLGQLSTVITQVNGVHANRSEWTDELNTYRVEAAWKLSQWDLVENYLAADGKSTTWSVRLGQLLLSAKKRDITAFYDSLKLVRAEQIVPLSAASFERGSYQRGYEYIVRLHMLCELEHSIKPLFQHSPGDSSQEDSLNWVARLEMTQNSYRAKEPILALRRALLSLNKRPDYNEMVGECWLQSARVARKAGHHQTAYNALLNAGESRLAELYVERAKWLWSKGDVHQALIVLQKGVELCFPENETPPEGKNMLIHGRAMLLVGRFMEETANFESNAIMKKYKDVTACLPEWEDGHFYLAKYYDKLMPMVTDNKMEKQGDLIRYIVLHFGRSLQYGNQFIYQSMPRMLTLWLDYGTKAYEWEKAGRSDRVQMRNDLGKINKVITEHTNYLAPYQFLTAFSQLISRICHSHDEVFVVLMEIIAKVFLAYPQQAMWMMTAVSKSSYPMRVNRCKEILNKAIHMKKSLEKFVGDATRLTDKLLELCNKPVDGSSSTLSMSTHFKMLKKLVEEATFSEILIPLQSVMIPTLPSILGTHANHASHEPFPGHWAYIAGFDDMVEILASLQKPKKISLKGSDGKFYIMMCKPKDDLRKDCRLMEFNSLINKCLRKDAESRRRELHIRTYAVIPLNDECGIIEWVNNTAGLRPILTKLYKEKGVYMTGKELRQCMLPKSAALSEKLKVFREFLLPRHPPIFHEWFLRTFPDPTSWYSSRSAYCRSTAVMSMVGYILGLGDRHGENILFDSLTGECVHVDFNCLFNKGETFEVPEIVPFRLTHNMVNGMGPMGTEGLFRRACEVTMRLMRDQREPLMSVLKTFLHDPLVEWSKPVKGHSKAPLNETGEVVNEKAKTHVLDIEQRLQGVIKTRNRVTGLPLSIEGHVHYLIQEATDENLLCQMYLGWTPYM
T3 sequence (Q8WXE1 whole entry partner): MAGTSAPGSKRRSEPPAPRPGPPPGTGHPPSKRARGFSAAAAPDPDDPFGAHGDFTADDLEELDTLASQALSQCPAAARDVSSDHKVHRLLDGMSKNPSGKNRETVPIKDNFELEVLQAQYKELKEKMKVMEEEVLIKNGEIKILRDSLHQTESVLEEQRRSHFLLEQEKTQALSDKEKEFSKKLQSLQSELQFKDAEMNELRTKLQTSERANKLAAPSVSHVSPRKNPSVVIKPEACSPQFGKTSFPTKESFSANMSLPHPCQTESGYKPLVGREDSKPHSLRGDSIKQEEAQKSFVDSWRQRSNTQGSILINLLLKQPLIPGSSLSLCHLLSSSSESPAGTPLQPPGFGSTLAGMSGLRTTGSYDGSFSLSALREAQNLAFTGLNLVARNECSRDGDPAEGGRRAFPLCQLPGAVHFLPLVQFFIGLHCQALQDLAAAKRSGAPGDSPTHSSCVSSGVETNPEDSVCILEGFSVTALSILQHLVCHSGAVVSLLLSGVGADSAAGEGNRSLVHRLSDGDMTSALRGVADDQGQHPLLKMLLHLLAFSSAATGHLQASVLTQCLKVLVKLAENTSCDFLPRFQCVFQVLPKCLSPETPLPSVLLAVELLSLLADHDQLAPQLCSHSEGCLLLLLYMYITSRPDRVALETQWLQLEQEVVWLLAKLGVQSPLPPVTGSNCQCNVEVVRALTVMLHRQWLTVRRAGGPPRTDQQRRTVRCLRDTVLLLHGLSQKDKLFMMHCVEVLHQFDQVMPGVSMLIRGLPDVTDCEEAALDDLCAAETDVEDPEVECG

As to `COc1ncc(-c2ccc3ncc4cnc(C5CC5)n4c3c2)cc1NS(=O)(=O)N1CCNCC1` [Compound 1], the IC50 in assay [1] (setting [13]) was found to be 0.23 nM; in assay [2] (setting [13]), 0.39 nM; in [3], 0.5 nM; in assay [4] it was 3.6 nM; in assay [5] it was 0.5 nM; in [6], 9 nM. For the same molecule, the IC50 in [7] stood at 0.1 nM.
With `COc1ncc(-c2ccc3ncc4c(c3c2)n(C2CC2)c(=O)n4C)cc1NS(=O)(=O)N1CCNCC1` [Compound 2], the IC50 is 0.31 nM in assay [1]; 0.41 nM in [2]; 0.7 nM in assay [3]; 6.3 nM in [4]; 1 nM in [5]; 13 nM in [6]. Besides, in assay [7], the IC50 was 0.4 nM.
Take `COc1ncc(-c2ccc3ncc4c(c3c2)n([C@@H]2C[C@@H]2F)c(=O)n4C)cc1NS(=O)(=O)N1CCNCC1` [Compound 27]: the IC50 in assay [1] (setting [13]) turned out to be 0.24 nM; in assay [2] (setting [13]), 0.29 nM; in assay [4], 6.4 nM; in assay [5], 0.7 nM; in assay [6], 17 nM; in assay [7], 0.2 nM.
Consider `COc1ncc(-c2ccc3ncc4c(c3n2)n(C2CC2)c(=O)n4C)cc1NS(=O)(=O)N1CCNCC1` [Compound 28], for which the IC50 in [2] (setting [13]) was 0.24 nM; in [3], 0.6 nM; in assay [4], 2.8 nM; in assay [5] it was 0.6 nM; in [6] it was 13 nM; in [7], 0.3 nM.
With `COc1ncc(-c2ccc3ncc4c(c3c2)n(C(C)C)c(=O)n4C)cc1NS(=O)(=O)N1CCNCC1` [Compound 29], the IC50 amounted to 0.056 nM in assay [1] (setting [13]); 0.078 nM in assay [2] (setting [13]); 1.4 nM in assay [3]; 1.4 nM in [4]; 0.7 nM in assay [5]; 20 nM in assay [6]. Further, in assay [7], the IC50 stood at 0.3 nM.
On to `COCC1(n2c(=O)n(C)c3cnc4ccc(-c5cnc(OC)c(NS(=O)(=O)N6CCNCC6)c5)cc4c32)CC1` [Compound 30], for which the IC50 in assay [1] (setting [13]) turned out to be 0.41 nM; in assay [2] (setting [13]), 0.64 nM; in assay [3], 2.3 nM; in assay [4], 4.6 nM; in [5], 1 nM; in [6] it was 36 nM. The IC50 in assay [7] was 0.6 nM.
For the molecule `COc1ncc(-c2ccc3ncc4c(c3c2)n(CC(F)(F)F)c(=O)n4C)cc1NS(=O)(=O)N1CCNCC1` [Compound 32], the IC50 in assay [1] (setting [13]) is 0.22 nM; in assay [2] (setting [13]), 0.24 nM; in [3], 2.8 nM; in [5] it was 0.6 nM; in assay [6], 17 nM; in assay [7], 0.3 nM.
On to daratumumab, for which the EC50 in [8] was determined as 3.51 nM. In other words, the single-digit nanomolar range.

B1: ADC-24 (antibody, human IgG1, kappa, V domains shown)
VH: QVQLQQPGAELVKPGASVKMSCKASGYTFTSYNMHWVKQTPGRGLEWIGAIYPGNGDTSYNQKFKGKATLTADKSSSTAYMQLSSLTSEDSAVYYCARSTYYGGDWYFNVWGAGTTVTVSA
VL: QIVLSQSPAILSASPGEKVTMTCRASSSVSYIHWFQQKPGSSPKPWIYATSNLASGVPVRFSGSGSGTSYSLTISRVEAEDAATYYCQQWTSNPPTFGGGTKLEIKR
For B1, the “IC50, nM, cell proliferation, Ramos cell line (CD20^+)” value in assay [9] is 27.7 nM. The molecule also returned a half-maximal effective concentration (EC50) in assay [10] of 0.457 nM.

B2: Rituximab (antibody, human IgG1, kappa, V domains shown)
VH: B1 VH
VL: B1 VL
With B2, it took 0.691 nM to reach a half-maximal effect in assay [10] (EC50).

B3: ADC-32 (antibody, human IgG1, kappa, V domains shown)
VH: QVQLVQSGAEVKKPGASVKVSCKASGYTFTDYAMHWVRQAPGQRLEWMGLISTYSGDTKYNQNFQGRVTMTVDKSASTAYMELSSLRSEDTAVYYCARGDYSGSRYWFAYWGQGTLVTVSS
VL: DIQMTQSPSSLSASVGDRVTITCQASENIYGALNWYQRKPGKSPKLLIYGASNLATGMPSRFSGSGSGTDYTFTISSLQPEDIATYYCQQVLSSPYTFGGGTKLEIKR
B3 displayed an IC50, nM, cell proliferation, H2122 cell line (CEACAM 5/6^+) in [11] of 0.29 nM. In addition, the EC50 in assay [12] was determined as 4.26 nM.

B4: mAb1 (antibody, human IgG1, kappa, V domains shown)
VH: B3 VH
VL: B3 VL
In turn, B4 displayed an EC50 in assay [12] of 7.94 nM.

The values are drawn from patent US20260048138A1, “NOVEL PI3K AND/OR PIKK INHIBITORS, ANTIBODY-DRUG CONJUGATES COMPRISING THE SAME AND USES THEREOF” (HUTCHMED LIMITED, priority 2024, published 2026).
